Test results reported in patent US9738660B2, “Selective inhibitors for protein kinases and pharmaceutical composition and use thereof” (National Chiao Tung University, priority 2014, dated 2017).
Where two headings read alike, the source gives them in different places.

Key:
Test in all cases: Kinase Profiler, residual kinase activity
Type in all cases: biochemical
[1] = molecular target: ALK (Homo sapiens, UniProt Q9UM73); details: read-out: percentage of the remaining kinase activity
Outline: (§1)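 Read-out is residual enzyme activity, measured by a contract kinase-profiling platform covering 40 protein kinases.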

[2] = molecular target: T1, AURKA (Homo sapiens, UniProt O14965); details: read-out: percentage of the remaining kinase activity
T1 sequence (O14965 1-403): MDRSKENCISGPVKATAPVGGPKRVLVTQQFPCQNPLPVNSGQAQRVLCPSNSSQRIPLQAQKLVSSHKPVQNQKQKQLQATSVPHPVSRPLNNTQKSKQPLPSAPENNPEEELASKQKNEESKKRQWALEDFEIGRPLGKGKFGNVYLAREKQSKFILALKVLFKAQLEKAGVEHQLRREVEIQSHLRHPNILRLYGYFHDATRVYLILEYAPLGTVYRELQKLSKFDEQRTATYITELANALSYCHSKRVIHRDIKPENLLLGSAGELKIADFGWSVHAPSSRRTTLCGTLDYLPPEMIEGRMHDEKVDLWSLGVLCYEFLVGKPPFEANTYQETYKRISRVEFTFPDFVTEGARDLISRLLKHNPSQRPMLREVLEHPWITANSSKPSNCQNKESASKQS
Outline: as §1

[3] = molecular target: CAMK2D (Homo sapiens, UniProt Q13557); details: for remaining activity at 0.5 µM: read-out: percentage of the remaining kinase activity
Outline: as §1

[4] = molecular target: CLK1 (Homo sapiens, UniProt P49759); details: read-out: percentage of the remaining kinase activity
Outline: as §1

[5] = molecular target: T2, EGFR (Homo sapiens, UniProt P00533); details: read-out: percentage of the remaining kinase activity
T2 construct: purchased Research Biology Corp. (http://www.reactionbiology.com)
Outline: as §1

[6] = molecular target: LIMK1 (Homo sapiens, UniProt P53667); details: read-out: percentage of the remaining kinase activity
Outline: as §1

[7] = molecular target: T3, MAP3K7 (Homo sapiens, UniProt O43318); details: read-out: percentage of the remaining kinase activity
T3 construct: purchased Research Biology Corp. (http://www.reactionbiology.com)
T3 sequence (O43318 1-303 limits assumed): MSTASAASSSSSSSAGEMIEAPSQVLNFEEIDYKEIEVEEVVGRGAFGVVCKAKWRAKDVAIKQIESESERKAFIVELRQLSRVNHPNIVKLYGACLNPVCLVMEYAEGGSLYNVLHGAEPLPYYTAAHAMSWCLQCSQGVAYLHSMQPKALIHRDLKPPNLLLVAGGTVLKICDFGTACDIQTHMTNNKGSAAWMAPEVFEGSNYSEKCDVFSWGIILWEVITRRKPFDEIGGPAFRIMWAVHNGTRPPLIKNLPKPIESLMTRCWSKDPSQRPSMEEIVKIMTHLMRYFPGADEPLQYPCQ
Outline: as §1

[8] = molecular target: T4, PDPK1 (Homo sapiens, UniProt O15530); details: read-out: percentage of the remaining kinase activity
T4 sequence (O15530 1-556): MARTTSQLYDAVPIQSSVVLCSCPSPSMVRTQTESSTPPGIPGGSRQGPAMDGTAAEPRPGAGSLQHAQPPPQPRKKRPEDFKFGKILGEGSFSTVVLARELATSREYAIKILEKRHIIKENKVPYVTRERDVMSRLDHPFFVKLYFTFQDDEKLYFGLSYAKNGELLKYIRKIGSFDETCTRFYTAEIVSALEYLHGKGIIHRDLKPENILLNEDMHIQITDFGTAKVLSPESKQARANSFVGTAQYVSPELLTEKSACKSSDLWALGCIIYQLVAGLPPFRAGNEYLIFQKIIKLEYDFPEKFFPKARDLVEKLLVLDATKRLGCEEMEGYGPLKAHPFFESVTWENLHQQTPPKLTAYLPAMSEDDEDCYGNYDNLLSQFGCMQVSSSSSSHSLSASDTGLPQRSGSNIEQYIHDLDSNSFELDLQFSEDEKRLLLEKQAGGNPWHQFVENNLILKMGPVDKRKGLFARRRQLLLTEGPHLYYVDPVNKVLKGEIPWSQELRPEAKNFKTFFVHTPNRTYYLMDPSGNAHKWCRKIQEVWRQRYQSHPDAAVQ
Outline: as §1

[9] = molecular target: T5, PRKACA (Homo sapiens, UniProt P17612); details: read-out: percentage of the remaining kinase activity
T5 construct: purchased Research Biology Corp. (http://www.reactionbiology.com)
Outline: as §1

[10] = molecular target: RET (Homo sapiens, UniProt P07949); details: read-out: percentage of the remaining kinase activity
Outline: as §1

[11] = molecular target: T6, RPS6KA5 (Homo sapiens, UniProt O75582); details: read-out: percentage of the remaining kinase activity
T6 construct: purchased Research Biology Corp. (http://www.reactionbiology.com)
Outline: as §1

[12] = molecular target: T7, SRPK1 (Homo sapiens, UniProt Q96SB4); details: read-out: percentage of the remaining kinase activity
T7 construct: purchased Research Biology Corp. (http://www.reactionbiology.com)
Outline: as §1

[13] = molecular target: T8, STK4 (Homo sapiens, UniProt Q13043); details: read-out: percentage of the remaining kinase activity
T8 construct: purchased Research Biology Corp. (http://www.reactionbiology.com)
T8 sequence (Q13043 1-487): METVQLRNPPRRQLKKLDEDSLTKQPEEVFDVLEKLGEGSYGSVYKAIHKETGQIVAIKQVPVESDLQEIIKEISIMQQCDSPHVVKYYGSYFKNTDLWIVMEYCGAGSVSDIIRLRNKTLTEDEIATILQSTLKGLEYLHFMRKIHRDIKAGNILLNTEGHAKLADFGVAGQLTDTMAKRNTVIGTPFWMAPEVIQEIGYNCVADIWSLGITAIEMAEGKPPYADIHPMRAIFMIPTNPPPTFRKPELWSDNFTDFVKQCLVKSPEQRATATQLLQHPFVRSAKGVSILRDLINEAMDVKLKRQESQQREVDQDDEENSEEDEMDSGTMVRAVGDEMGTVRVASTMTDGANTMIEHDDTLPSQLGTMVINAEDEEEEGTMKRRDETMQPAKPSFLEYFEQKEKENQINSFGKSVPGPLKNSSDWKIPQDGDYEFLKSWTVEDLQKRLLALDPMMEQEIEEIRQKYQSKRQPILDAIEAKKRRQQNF
Outline: as §1

Sequence of CLK1 (P49759 whole entry): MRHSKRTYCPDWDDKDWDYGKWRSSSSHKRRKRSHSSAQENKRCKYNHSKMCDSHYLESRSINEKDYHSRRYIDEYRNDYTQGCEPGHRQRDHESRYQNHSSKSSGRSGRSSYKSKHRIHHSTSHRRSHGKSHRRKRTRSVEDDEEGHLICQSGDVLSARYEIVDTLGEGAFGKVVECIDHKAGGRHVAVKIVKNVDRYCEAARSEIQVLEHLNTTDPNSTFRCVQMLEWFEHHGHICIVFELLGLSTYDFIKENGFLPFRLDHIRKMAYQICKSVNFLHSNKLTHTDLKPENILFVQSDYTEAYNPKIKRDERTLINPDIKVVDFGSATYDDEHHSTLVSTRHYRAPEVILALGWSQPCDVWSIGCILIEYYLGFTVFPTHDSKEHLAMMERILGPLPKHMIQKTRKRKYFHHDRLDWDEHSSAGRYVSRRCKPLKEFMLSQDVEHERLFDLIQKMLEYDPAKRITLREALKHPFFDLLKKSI
Sequence of ALK (Q9UM73 19-1620): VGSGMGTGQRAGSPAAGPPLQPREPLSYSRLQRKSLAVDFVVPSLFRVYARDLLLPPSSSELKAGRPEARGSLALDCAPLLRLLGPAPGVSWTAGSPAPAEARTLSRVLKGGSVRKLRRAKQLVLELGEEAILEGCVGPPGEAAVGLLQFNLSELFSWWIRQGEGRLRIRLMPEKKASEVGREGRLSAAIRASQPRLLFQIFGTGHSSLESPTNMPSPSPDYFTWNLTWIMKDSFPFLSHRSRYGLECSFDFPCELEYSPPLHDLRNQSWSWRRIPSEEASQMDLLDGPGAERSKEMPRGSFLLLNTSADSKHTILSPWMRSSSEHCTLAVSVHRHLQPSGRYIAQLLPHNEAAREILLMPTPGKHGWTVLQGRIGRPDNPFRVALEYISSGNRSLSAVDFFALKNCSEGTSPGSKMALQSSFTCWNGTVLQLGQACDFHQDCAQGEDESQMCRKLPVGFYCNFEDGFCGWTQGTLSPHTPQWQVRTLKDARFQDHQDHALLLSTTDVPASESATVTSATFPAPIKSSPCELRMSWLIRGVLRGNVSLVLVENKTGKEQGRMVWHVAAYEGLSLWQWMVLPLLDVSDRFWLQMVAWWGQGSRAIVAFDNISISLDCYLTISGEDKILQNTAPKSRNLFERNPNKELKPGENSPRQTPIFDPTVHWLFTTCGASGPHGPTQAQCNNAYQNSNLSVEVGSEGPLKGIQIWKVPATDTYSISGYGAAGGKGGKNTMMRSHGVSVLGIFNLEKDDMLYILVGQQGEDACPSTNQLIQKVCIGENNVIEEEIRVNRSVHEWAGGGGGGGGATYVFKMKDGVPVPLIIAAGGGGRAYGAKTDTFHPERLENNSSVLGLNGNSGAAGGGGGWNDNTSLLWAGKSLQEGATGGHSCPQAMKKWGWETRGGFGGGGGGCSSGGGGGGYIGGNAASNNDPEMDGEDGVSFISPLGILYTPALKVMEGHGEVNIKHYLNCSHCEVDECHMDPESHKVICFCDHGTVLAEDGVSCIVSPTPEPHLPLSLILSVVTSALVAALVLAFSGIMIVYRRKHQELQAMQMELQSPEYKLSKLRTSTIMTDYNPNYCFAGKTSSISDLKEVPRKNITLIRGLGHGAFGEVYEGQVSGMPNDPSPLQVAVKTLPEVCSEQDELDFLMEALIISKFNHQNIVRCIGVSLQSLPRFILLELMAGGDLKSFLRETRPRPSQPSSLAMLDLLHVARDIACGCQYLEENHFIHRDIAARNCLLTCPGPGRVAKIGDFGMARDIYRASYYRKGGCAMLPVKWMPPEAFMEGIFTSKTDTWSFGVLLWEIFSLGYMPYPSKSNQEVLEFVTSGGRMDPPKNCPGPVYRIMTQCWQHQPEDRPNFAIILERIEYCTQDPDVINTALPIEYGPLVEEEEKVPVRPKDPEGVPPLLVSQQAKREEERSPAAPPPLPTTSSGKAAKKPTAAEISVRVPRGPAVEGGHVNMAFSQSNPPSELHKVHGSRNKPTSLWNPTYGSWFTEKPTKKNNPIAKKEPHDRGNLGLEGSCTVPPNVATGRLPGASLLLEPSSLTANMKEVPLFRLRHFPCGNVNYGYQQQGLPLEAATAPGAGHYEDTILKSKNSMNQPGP
Sequence of LIMK1 (P53667 whole entry): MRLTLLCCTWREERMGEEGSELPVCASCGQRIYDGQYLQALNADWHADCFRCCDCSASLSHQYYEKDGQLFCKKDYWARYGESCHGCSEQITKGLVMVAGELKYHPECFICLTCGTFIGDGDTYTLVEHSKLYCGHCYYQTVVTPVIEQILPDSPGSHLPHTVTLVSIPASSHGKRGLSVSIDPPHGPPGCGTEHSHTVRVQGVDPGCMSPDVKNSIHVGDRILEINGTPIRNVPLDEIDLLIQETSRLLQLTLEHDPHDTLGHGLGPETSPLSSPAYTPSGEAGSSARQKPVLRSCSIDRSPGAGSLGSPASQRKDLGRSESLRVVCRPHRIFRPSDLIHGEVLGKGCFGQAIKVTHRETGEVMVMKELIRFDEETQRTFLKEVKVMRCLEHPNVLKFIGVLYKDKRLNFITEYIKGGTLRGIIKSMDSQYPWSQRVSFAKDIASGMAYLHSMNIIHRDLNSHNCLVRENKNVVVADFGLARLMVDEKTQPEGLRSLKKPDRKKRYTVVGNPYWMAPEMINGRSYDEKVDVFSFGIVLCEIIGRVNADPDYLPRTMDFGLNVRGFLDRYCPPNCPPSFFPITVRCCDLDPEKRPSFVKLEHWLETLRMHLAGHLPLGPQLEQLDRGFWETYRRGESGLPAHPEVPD
Sequence of CAMK2D (Q13557 whole entry): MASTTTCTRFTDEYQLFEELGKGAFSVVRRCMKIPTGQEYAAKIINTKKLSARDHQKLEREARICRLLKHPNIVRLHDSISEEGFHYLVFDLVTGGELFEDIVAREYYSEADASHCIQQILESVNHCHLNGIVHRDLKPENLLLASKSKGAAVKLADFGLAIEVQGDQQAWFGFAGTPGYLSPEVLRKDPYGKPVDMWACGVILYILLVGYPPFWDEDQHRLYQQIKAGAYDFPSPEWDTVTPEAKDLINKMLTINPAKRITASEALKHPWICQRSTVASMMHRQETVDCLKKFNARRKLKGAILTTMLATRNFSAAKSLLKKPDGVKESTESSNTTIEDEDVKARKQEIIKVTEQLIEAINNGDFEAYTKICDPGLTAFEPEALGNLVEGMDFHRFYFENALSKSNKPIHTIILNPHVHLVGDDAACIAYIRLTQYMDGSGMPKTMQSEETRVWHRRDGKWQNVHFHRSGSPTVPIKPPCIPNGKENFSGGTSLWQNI
T2 sequence (P00533 25-1210): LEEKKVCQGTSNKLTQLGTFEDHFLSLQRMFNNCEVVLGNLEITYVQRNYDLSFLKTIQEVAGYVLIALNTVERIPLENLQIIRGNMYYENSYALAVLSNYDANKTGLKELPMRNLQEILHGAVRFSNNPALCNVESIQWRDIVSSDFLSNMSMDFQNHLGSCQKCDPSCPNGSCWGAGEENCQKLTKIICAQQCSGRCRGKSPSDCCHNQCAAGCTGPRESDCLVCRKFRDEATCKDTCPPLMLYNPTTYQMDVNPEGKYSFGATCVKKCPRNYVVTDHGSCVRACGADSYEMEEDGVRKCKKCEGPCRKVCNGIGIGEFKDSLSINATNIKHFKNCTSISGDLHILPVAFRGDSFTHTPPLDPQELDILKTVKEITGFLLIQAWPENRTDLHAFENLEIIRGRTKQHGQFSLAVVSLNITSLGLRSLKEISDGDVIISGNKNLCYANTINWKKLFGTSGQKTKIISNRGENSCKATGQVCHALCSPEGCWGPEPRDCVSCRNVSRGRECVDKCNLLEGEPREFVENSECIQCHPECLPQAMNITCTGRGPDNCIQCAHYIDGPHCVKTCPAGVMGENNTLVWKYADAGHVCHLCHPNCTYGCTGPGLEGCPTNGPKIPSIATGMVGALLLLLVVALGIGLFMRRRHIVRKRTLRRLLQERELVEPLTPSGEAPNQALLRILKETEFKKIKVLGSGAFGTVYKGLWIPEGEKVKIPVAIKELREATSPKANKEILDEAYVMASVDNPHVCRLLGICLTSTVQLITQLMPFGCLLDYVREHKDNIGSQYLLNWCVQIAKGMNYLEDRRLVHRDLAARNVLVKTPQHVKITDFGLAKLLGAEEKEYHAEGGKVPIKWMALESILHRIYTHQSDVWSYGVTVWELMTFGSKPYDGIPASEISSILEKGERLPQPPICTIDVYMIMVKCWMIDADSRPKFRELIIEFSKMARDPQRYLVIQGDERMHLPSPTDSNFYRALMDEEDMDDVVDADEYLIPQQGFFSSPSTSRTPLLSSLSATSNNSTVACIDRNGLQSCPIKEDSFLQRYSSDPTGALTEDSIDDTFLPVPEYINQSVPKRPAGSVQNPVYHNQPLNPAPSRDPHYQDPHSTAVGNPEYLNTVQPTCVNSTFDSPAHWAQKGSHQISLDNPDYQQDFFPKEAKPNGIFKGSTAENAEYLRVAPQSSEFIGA
T7 sequence (Q96SB4 whole entry): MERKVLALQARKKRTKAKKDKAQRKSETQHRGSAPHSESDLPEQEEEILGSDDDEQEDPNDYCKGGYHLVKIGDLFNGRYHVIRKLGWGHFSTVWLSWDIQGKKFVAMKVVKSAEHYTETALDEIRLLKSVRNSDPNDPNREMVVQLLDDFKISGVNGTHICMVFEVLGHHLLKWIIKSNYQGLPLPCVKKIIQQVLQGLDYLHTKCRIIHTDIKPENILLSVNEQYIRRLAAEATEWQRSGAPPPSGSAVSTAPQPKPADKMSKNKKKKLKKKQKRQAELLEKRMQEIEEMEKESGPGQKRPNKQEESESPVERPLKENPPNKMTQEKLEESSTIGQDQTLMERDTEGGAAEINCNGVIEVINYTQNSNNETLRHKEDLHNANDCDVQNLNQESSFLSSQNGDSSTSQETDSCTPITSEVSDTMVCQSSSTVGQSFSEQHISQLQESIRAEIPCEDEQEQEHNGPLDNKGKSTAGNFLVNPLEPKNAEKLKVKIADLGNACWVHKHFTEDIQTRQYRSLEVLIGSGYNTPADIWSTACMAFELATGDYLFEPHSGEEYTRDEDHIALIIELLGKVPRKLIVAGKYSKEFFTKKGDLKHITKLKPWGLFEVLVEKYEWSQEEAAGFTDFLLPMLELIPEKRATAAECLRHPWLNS

Structure (SMILES)	remaining activity at 0.5 µM ([1]; ALK, inhibitor at 500 nM)	remaining activity at 0.5 µM ([2]; AURKA, inhibitor at 500 nM)	remaining activity at 0.5 µM ([3]; CAMK2D, inhibitor at 500 nM)	remaining activity at 0.5 µM ([4]; CLK1, inhibitor at 500 nM)	remaining activity at 0.5 µM ([5]; EGFR, inhibitor at 500 nM)	remaining activity at 0.5 µM ([6]; LIMK1, inhibitor at 500 nM)	remaining activity at 0.5 µM ([7]; MAP3K7, inhibitor at 500 nM)	remaining activity at 0.5 µM ([8]; PDPK1, inhibitor at 500 nM)	remaining activity at 0.5 µM ([9]; PRKACA, inhibitor at 500 nM)	remaining activity at 0.5 µM ([10]; RET, inhibitor at 500 nM)	remaining activity at 0.5 µM ([11]; RPS6KA5, inhibitor at 500 nM)	remaining activity at 0.5 µM ([12]; SRPK1, inhibitor at 500 nM)	remaining activity at 0.5 µM ([13]; STK4, inhibitor at 500 nM)	other results
COC1C(N(C)CCOc2cccc([N+](=O)[O-])c2)CC2OC1(C)n1c3ccccc3c3c4c(c5c6ccccc6n2c5c31)C(=O)NC4 (stereo not drawn) [Compound 8]	–	–	–	–	–	–	–	–	–	–	–	–	–	remaining activity at 0.5 µM [1]: 19.5%; remaining activity at 0.5 µM [2]: 12.1%; remaining activity at 0.5 µM [3]: 0.3%; remaining activity at 0.5 µM [4]: 74.8%; remaining activity at 0.5 µM [5]: 102%; remaining activity at 0.5 µM [6]: 49.9%; remaining activity at 0.5 µM [7]: 63.5%; remaining activity at 0.5 µM [8]: 4.7%; remaining activity at 0.5 µM [9]: 26.4%; remaining activity at 0.5 µM [10]: 16.2%; remaining activity at 0.5 µM [11]: 7.4%; remaining activity at 0.5 µM [12]: 78.3%; remaining activity at 0.5 µM [13]: 2.7%
COC1C(N(C)C(=O)C(N)Cc2c[nH]cn2)CC2OC1(C)n1c3ccccc3c3c4c(c5c6ccccc6n2c5c31)C(=O)NC4 (stereo not drawn) [Compound 1]	3.3%	2.1%	2%	15.9%	30.5%	18.8%	37.5%	0.5%	13.9%	6%	1.7%	24.4%	1.8%	–
COC1C(N(C)C(=O)C(N)Cc2cn(C(=O)OC(C)(C)C)c3ccccc23)CC2OC1(C)n1c3ccccc3c3c4c(c5c6ccccc6n2c5c31)C(=O)NC4 (stereo not drawn) [Compound 2]	85.4%	86.2%	16.1%	107%	110%	103%	103%	81%	81.1%	101%	61.4%	95.7%	72.8%	IC50 ([3]; CAMK2D, inferred from test at 500 nM (FIG. 1)): < 500 nM
CN[C@@H]1C[C@H]2O[C@@](C)([C@@H]1OC)n1c3ccccc3c3c4c(c5c6ccccc6n2c5c31)C(=O)NC4 [STU, staurosporine, reference compound]	–	–	–	–	–	–	–	-1.8%	–	–	–	17.7%	–	remaining activity at 0.5 µM [1]: -0.3%; remaining activity at 0.5 µM [2]: 0.2%; remaining activity at 0.5 µM [3]: 0.4%; remaining activity at 0.5 µM [6]: -0.6%; remaining activity at 0.5 µM [11]: 1.1%; remaining activity at 0.5 µM [13]: 5.5%

Now from value to molecule, other results behind:

remaining activity at 0.5 µM ([1]; ALK, inhibitor at 500 nM)	remaining activity at 0.5 µM ([2]; AURKA, inhibitor at 500 nM)	remaining activity at 0.5 µM ([3]; CAMK2D, inhibitor at 500 nM)	remaining activity at 0.5 µM ([4]; CLK1, inhibitor at 500 nM)	remaining activity at 0.5 µM ([5]; EGFR, inhibitor at 500 nM)	remaining activity at 0.5 µM ([6]; LIMK1, inhibitor at 500 nM)	remaining activity at 0.5 µM ([7]; MAP3K7, inhibitor at 500 nM)	remaining activity at 0.5 µM ([8]; PDPK1, inhibitor at 500 nM)	remaining activity at 0.5 µM ([9]; PRKACA, inhibitor at 500 nM)	remaining activity at 0.5 µM ([10]; RET, inhibitor at 500 nM)	remaining activity at 0.5 µM ([11]; RPS6KA5, inhibitor at 500 nM)	remaining activity at 0.5 µM ([12]; SRPK1, inhibitor at 500 nM)	remaining activity at 0.5 µM ([13]; STK4, inhibitor at 500 nM)	Structure (SMILES)	other results
44.7%	5.3%	12.7%	86.6%	108%	39.5%	84.2%	3.4%	40.8%	34.2%	3.3%	65.3%	6%	COC1C(N(C)C(=O)C(N)CCC(=O)OC(C)(C)C)CC2OC1(C)n1c3ccccc3c3c4c(c5c6ccccc6n2c5c31)C(=O)NC4 (stereo not drawn) [Compound 6]	–
4.7%	0.9%	2.3%	32.3%	82.2%	1.4%	27.8%	0.5%	18.6%	1.6%	1.8%	38.9%	1.9%	COC1C(N(C)C(=O)C(N)CCC(=O)O)CC2OC1(C)n1c3ccccc3c3c4c(c5c6ccccc6n2c5c31)C(=O)NC4 (stereo not drawn) [Compound 7]	–
56.7%	19.7%	6.7%	98.6%	108%	66.9%	98.6%	13.3%	38.3%	63%	1.6%	85%	12%	COC1C(N(C)C(=O)C(N)Cc2ccc(OC(C)(C)C)cc2)CC2OC1(C)n1c3ccccc3c3c4c(c5c6ccccc6n2c5c31)C(=O)NC4 (stereo not drawn) [Compound 4]	–
